This note sets out measurements from article PMC9696832, “Pyrazole-Based Thrombin Inhibitors with a Serine-Trapping Mechanism of Action: Synthesis and Biological Activity” (Pharmaceuticals, 2022).

The test system of series [1] is human pooled plasma. The series can be described thus: In vitro plasma coagulation assay (PT). Type of series: biochemical. The settings on record: tested at 200 μM. Here is the method: (§1) In vitro plasma coagulation assays (aPTT and PT). All measurements were performed using commercially available citrated (3.8%) human pooled plasma (Dunn Labortechnik GmbH, Germany) on a semi-automated coagulometer (Thrombotimer-2, Behnk Elektronik, Germany) according to the manufacturer instructions as previously reported. For aPTT measurement, plasma (100 μL) was placed into the incubation cuvettes of the instrument and incubated for 2 min at 37 °C. Then, test compound solution (10 μL) or solvent (DMSO, 10 μL) was added with a pipette. After 1 min of incubation, 100 μL of prewarmed (37 °C) aPTT reagent (Convergent Technologies, Germany) was added and incubated for additional 2 min. The cuvettes were transferred to a measuring position, the coagulation was initiated by addition of 100 μL of CaCl2 solution (25 mM, prewarmed at 37 °C, Convergent Technologies, Germany) and the clotting time was recorded. For PT assays, plasma (100 μL) was incubated for 2 min at 37 °C. Then, test compound solution (10 μL) or solvent (DMSO, 10 μL) was added with a pipette. After 3 min of incubation, the cuvettes were transferred to a measuring position, the coagulation was initiated by addition of 100 μL of PT assay reagent already containing CaCl2 (prewarmed at 37 °C, Biolabo, France) and the clotting time was recorded.

Another series has as its system human chymotrypsin. The series can be described thus: Serine protease inhibition assay, fluorogenic substrate: chymotrypsin. Type of series: biochemical. Here is the method:
(§2) Serine protease inhibition assays. The inhibitory activity of synthesized compounds towards thrombin, FXIIa, FXa, FXIa, plasmin, plasma kallikrein, chymotrypsin, and trypsin was measured by quantifying the hydrolysis rate of the fluorogenic substrate as reported previously. Briefly, the activity was tested in buffer (10 mM Tris-Cl, 150 mM NaCl, 10 mM MgCl2·6H2O, 1 mM CaCl2·2H2O, 0.1% w/v BSA, 0.01% v/v Triton-X100, pH = 7.4) utilizing clear flat-bottom, black polystyrene 96 well-plates. […] Dilutions of test-compounds ranging from 2 nM to 32 µM (final concentrations) in DMSO were prepared. The fluorogenic substrate solution was added into the wells followed by the addition of 2 µL of test-compounds solution, and the reaction was triggered by addition of the enzyme solution (final testing volume–152 µL). In case of blank (substrate + buffer) and control (substrate + enzyme) wells, 2 µL of DMSO was added instead of the test-compounds’ solution. Fluorescence intensity was measured with Microplate Reader Mithras LB 940 (Berthold Technologies, excitation at 355 nm, emission at 460 nm) for a period of 1 h (thrombin, FXIIa, FXa, FXIa, and trypsin), 30 min (plasma kallikrein, chymotrypsin), or 15 min (plasmin) with a read every minute. The reactions were performed at 25 °C. To derive IC50 values, endpoint RFU (single fluorescence reading) was used. Sigmoidal curves were prepared in GraphPad Prism software and IC50 values were derived from the fitted curves.

Another series deals with T1, human plasma kallikrein (Homo sapiens, UniProt P03952).
T1 construct: human plasma kallikrein, >94% purity; purchased Innovative Research
As to the kind of experiment: Serine protease inhibition assay, fluorogenic substrate: plasma kallikrein. Type of series: biochemical. The settings on record: screened at 5 μM; IC50 in triplicate for actives; [S]0 = 25 µM; read-out: Serine Protease IC50 ± SD, PK (plasma kallikrein). How it is done: as §2

The target of a further series is T2, porcine trypsin (Sus scrofa, UniProt P00761).
T2 construct: porcine trypsin; Merck; purchased Merck
The series can be described thus: Serine protease inhibition assay, fluorogenic substrate: trypsin. Type of series: biochemical. The note with it: screened at 5 μM; [S]0 = 25 µM; read-out: Serine Protease IC50 ± SD, Trypsin. Here is the method:
as §2

For the next series, the target named is T3, human Factor Xa (Homo sapiens, UniProt P00742).
T3 construct: human Factor Xa, HFXA; purchased Molecular Innovations HFXA
The series can be described thus: Serine protease inhibition assay, fluorogenic substrate: FXa. Type of series: biochemical. The settings on record: screened at 5 μM; IC50 in triplicate for actives; [S]0 = 25 µM; read-out: Serine Protease IC50 ± SD, FXa. Here is the method:
as §2

A further series concerns the target T4, human plasmin (Homo sapiens, UniProt P00747).
T4 construct: human plasmin, >95% purity; purchased Innovative Research
As to the kind of experiment: Serine protease inhibition assay, fluorogenic substrate: plasmin. Type of series: biochemical. The settings on record: screened at 5 μM; [S]0 = 25 µM; read-out: Serine Protease IC50 ± SD, Plasmin. How it is done:
as §2

A further series deals with T5, human β-FXIIa (Homo sapiens, UniProt P00748).
T5 construct: human β-FXIIa, HFXIIAB; purchased Molecular Innovations HFXIIAB
The series can be described thus: Serine protease inhibition assay, fluorogenic substrate: FXIIa. Type of series: biochemical. The settings on record: read-out: Serine Protease IC50 ± SD, FXIIa. Here is the method:
as §2

Series [2] addresses T6, human α-thrombin (Homo sapiens, UniProt P00734).
T6 construct: human α-thrombin (active) protein; purchased antibodies-online ABIN2127880
As to the kind of experiment: Mass-shift assay of the covalent thrombin-inhibitor complex by LC/ESI-MS. The note with it: 79 μM inhibitor, preincubated 15 min, ESI(+); corresponds to pivaloyl moiety. How it is done:
Analysis of the covalent thrombin-inhibitor complex by LC/ESI-MS. The analysis of covalent thrombin-inhibitor complex was performed utilizing LC/ESI-MS as reported previously with variations. Briefly, 2 µL of the stock solution (128 µM) of human α-thrombin (active) protein (ABIN2127880, >95% purity; antibodies-online) were diluted with 68 µL of purified water. […] Reversed phase liquid chromatography was performed using a Discovery BIO Wide Pore C5 column (100 × 2.1 mm, 3 µm particle size, 300 Å pore size) from Supelco (Bellefonte, PA, USA). For chromatographic analysis of the sample solutions, 0.1% formic acid in purified water (A) and 0.1% formic acid in acetonitrile (B) were used as mobile phase. The following gradient of 15 min in total was applied: starting with 5% B, B is increased up to 40% within 3 min. After holding 40% B for 1.5 min, B is decreased to 5% within 0.5 min and kept at 5% for 1 min. B is then increased to 95% within 4 min and kept at this value for 1 min. After decreasing B to 5% within 1 min, this ratio is kept for 3 min. […] The enzyme-inhibitor complex was analyzed in the positive ion mode using the following ESI-MS parameters: The mass range was set to m/z 1000–4000, nebulizer gas (nitrogen) was 1.6 bar, dry gas (nitrogen) was 9.0 L/min, dry gas temperature was 200 °C, Funnel 1 RF was 450 V, pre pulse storage time was 30 µs and transfer time was 100 µs. […]

In series [3] the target is T6, human α-thrombin. As to the kind of experiment: Serine protease inhibition assay, fluorogenic substrate: thrombin. Type of series: biochemical.
Protocol: Serine protease inhibition assays. The inhibitory activity of synthesized compounds towards thrombin, FXIIa, FXa, FXIa, plasmin, plasma kallikrein, chymotrypsin, and trypsin was measured by quantifying the hydrolysis rate of the fluorogenic substrate as reported previously [14, 17]. Briefly, the activity was tested in buffer (10 mM Tris-Cl, 150 mM NaCl, 10 mM MgCl2·6H2O, 1 mM CaCl2·2H2O, 0.1% w/v BSA, 0.01% v/v Triton-X100, pH = 7.4) utilizing clear flat-bottom, black polystyrene 96 well-plates. […] The fluorogenic substrate solution was added into the wells followed by the addition of 2 µL of test-compounds solution, and the reaction was triggered by addition of the enzyme solution (final testing volume–152 µL). In case of blank (substrate + buffer) and control (substrate + enzyme) wells, 2 µL of DMSO was added instead of the test-compounds’ solution. […] To derive IC50 values, endpoint RFU (single fluorescence reading) was used. Sigmoidal curves were prepared in GraphPad Prism software and IC50 values were derived from the fitted curves [14, 17].
In series [4] the test system is human pooled plasma. As to the kind of experiment: In vitro plasma coagulation assay (aPTT). Type of series: biochemical. The note with it: tested at 200 μM. Here is the method: as §1
The target of another series is T7, human Factor XIa (Homo sapiens, UniProt P03951).
T7 construct: human Factor XIa, HFXIA; purchased Molecular Innovations HFXIA
The series can be described thus: Serine protease inhibition assay, fluorogenic substrate: FXIa. Type of series: biochemical. The settings on record: screened at 5 μM; IC50 in triplicate for actives; [S]0 = 25 µM; read-out: Serine Protease IC50 ± SD, FXIa. How it is done: as §2

Where “and” joins values, the source holds several entries; their conditions need not be identical. Equal values may be shown once.

T2 sequence (P00761 9-231): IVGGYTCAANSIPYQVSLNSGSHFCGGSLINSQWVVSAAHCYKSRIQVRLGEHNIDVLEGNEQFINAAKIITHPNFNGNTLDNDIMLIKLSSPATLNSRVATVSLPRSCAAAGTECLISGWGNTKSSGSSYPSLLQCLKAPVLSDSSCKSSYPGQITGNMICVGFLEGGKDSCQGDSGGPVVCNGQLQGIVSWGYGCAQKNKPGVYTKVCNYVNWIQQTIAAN
T1 sequence (P03952 391-638 limits assumed): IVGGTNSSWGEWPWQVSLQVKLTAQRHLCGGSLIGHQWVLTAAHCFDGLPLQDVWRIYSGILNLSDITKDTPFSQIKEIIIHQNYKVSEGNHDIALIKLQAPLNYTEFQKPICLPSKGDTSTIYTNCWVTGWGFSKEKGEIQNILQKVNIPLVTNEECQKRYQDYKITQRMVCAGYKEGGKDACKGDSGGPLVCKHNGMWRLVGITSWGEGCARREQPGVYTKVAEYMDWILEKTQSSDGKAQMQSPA
T1 sequence (P03952 20-390 limits assumed): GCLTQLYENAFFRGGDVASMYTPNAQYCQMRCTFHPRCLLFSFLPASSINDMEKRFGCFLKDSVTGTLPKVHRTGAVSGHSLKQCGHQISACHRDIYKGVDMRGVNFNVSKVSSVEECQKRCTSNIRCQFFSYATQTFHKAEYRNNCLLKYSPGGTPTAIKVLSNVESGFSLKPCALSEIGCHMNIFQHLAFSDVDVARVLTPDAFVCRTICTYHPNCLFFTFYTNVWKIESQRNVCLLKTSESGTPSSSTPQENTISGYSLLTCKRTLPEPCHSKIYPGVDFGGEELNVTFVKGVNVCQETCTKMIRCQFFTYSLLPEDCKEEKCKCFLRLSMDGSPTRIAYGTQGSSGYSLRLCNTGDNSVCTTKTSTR
T5 sequence (P00748 373-615 limits assumed, other chains not shown): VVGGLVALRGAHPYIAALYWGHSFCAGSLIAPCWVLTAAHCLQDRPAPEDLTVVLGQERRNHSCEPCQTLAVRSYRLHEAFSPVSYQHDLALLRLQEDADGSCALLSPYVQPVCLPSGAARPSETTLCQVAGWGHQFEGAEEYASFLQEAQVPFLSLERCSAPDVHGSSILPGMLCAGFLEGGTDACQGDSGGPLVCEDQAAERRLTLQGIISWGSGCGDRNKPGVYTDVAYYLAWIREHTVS
T7 sequence (P03951 388-625 limits assumed): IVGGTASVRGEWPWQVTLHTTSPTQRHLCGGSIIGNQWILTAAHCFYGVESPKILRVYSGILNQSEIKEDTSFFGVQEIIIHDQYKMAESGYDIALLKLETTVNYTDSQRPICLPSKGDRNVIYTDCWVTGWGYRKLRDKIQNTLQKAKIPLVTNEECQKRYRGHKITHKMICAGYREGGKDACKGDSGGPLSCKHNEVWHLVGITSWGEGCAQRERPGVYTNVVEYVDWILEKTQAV
T7 sequence (P03951 19-387 limits assumed): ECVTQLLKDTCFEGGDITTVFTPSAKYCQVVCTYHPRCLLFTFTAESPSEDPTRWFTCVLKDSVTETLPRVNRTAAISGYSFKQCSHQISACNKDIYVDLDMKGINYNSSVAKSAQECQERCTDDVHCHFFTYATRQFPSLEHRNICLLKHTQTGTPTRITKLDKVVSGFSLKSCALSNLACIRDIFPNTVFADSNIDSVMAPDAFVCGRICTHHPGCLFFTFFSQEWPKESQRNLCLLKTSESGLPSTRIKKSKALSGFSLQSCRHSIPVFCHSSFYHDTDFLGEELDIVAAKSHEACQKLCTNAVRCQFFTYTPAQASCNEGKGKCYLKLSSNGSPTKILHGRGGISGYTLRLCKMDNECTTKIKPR
T4 sequence (P00747 581-810 limits assumed): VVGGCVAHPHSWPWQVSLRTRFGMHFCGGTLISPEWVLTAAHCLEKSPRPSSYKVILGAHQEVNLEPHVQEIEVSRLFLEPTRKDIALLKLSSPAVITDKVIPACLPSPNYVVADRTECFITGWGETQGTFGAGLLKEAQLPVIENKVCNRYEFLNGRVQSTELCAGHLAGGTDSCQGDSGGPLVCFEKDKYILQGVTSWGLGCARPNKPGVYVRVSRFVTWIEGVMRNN
T4 sequence (P00747 97-580 limits assumed): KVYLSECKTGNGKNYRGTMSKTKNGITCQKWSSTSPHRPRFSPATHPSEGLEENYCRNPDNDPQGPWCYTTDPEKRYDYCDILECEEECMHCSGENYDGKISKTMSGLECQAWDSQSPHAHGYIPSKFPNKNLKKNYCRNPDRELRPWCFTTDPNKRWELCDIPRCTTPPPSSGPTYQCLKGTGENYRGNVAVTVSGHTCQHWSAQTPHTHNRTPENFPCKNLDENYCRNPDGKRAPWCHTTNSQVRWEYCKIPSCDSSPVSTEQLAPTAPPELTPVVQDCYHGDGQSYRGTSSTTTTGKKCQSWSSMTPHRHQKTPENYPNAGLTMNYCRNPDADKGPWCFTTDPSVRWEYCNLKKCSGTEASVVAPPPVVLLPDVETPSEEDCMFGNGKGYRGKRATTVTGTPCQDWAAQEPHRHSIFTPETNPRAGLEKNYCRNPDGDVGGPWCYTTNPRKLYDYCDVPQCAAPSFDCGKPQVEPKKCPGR
T3 sequence (P00742 235-488 limits assumed): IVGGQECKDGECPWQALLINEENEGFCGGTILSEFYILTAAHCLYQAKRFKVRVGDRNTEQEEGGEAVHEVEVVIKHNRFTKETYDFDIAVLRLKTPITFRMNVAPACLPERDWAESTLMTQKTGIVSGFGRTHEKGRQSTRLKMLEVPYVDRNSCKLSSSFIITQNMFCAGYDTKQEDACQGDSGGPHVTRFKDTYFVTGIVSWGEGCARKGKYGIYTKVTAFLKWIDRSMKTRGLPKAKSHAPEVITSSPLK
T3 sequence (P00742 41-179 limits assumed): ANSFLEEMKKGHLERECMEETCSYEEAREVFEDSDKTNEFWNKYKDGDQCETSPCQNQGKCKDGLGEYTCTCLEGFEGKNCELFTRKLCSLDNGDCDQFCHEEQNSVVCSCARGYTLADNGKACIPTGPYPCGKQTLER

The term IC50 denotes the midpoint of a concentration-inhibition curve. Broadly, the melting point is the temperature of the solid-liquid transition. As for `CC(C)(C)C(=O)n1nc(-c2cccnc2)cc1NCc1ccc(Cl)s1` [24e, 1-(5-{[(5-chlorothiophen-2-yl)methyl]amino}-3-(pyridin-3-yl)-1H-pyrazol-1-yl)-2,2-dimethylpropan-1-one], the melting point fell in the range of 96 to 97 °C. The “PT, fold increase compared to DMSO” value in the series on human pooled plasma [1] is recorded as 1.1 fold. Also, in the series on human chymotrypsin (screened at 5 μM, IC50 in triplicate for actives, [S]0 = 25 µM, read-out: Serine Protease IC50 ± SD, Chymotrypsin), the IC50 turned out to be 0.875 ± 0.059 µM. In addition, in the series with human chymotrypsin (selectivity chymotrypsin vs thrombin), the “fold higher dose for 50% inhibition of chymotrypsin than for thrombin” value was determined as 55 fold. In addition, the IC50 at human plasma kallikrein is greater than 5 µM. The IC50 at porcine trypsin was greater than 5 µM. Also, on human Factor Xa, the half-inhibitory concentration (IC50) was greater than 5 µM. Also, on human plasmin, the IC50 was greater than 5 µM. Further, the IC50 at human β-FXIIa is greater than 5 µM. At human α-thrombin [2], the “mass-shift of thrombin after incubation with inhibitor (Δm)” value is 84.5 Da and 84.53 Da. For the same compound, at human α-thrombin [3] (IC50 16 nM vs. 419), the “fold more potent thrombin inhibitor than 3-phenyl-substituted analog 24g” value came to 26 fold. In addition, the half-inhibitory concentration (IC50) on human α-thrombin [3] ([S]0 = 25 µM Boc-Val-Pro-Arg-AMC, Km = 18 ± 1 µM, triplicate, 25 °C, read-out: Serine Protease IC50 ± SD, Thrombin) was 0.016 ± 0.001 µM. In addition, in the series with human pooled plasma [4], the “aPTT, fold increase compared to DMSO” value is 1.1 fold. For the same compound, at human Factor XIa, the IC50 was greater than 5 µM.
